Assay results taken from patent US8309111B2, “High alcohol content foaming compositions with silicone-based surfactants” (Deb Worldwide Healthcare Inc., priority 2005, dated 2012).

Assay: Foam evaluation of the prepared solutions: whether foam was produced, and foam description and quality
Type: physicochemical
Protocol: Examples 1 through 12 were prepared to illustrate the ability to produce alcohol-based disinfecting formulations which can be dispensed as foams using different surfactants and a solution of water and 50% ethanol. Examples 13 through 16 illustrate increasing concentrations of a silicone-based surfactant to produce foam with 40% ethanol. Examples 17 through 32 show increasing concentrations of ethanol with different silicone-based surfactants to produce foam. Examples 33 through 36 illustrate increasing concentrations of a silicone-based surfactant to produce acceptable foam at 62% ethanol. Examples 37 through 52 illustrate the ability to produce foam using different surfactants and a solution of 70% v/v Isopropanol. All parts and percentages are expressed by weight unless otherwise indicated.
The following examples were intended to evaluate the foaming ability of different groups of silicone surfactants with different combinations of ethanol, n-propyl alcohol and Isopropyl alcohol. They were also designed to asses the effect in the after feel as well as in the foam quality of some emollients and humectants, lipids, and other cosmetic type desired ingredients to be used with a leave-on hand sanitizer product. […]
The solutions prepared, were evaluated as to whether foam was produced or not and if so, then the foam produced was described as follows: […]

Foam result compared with silicone-based surfactants (CAPB alone, 40% ethanol, 3% CAPB, versus 60% v/v ethanol with less than 1.0% silicone-based surfactant): unable to produce as good results
Acceptable foam (above 40% ethanol): does not give any acceptable foam
Substance: Cocamidopropyl betaine
